Columns and labels:
Assay in all cases: relative viability (nuclei count vs DMSO), 5 days (fraction); higher = more cells survive
[1] = compound: CN[C@@H]1C[C@H]2O[C@@](C)([C@@H]1OC)n1c3ccccc3c3c4c(c5c6ccccc6n2c5c31)C(=O)NC4 [Staurosporine] + Cc1nc(Nc2ncc(C(=O)Nc3c(C)cccc3Cl)s2)cc(N2CCN(CCO)CC2)n1 [Dasatinib] (partner 0.075 µM)
Method in brief: (§1)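 Values are medians from duplicate plates. Each reflects relative viability, defined as the nuclei count of treated wells over that of vehicle wells. Lung cancer cell lines in 1536-well plates were pin-tool dosed one day after seeding with one drug alone or with a fixed anchor-drug dose plus five library-drug doses (not always all listed) in √10 steps, then fixed, stained and imaged at 4× after 5 days.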

[2] = compound: CN[C@@H]1C[C@H]2O[C@@](C)([C@@H]1OC)n1c3ccccc3c3c4c(c5c6ccccc6n2c5c31)C(=O)NC4 [Staurosporine] + Cc1nc(NC(=O)N2CCC[C@H]2C(N)=O)sc1-c1ccnc(C(C)(C)C(F)(F)F)c1 [Alpelisib] (partner 2 µM)
Method in brief: as §1

Sulindac + Olaparib = compound: CC1=C(CC(=O)O)c2cc(F)ccc2/C1=C\c1ccc([S+](C)[O-])cc1 [Sulindac] + O=C(c1cc(Cc2n[nH]c(=O)c3ccccc23)ccc1F)N1CCN(C(=O)C2CC2)CC1 [Olaparib] (partner 8 µM)
Method in brief: as §1

Sulindac + Linsitinib = compound: CC1=C(CC(=O)O)c2cc(F)ccc2/C1=C\c1ccc([S+](C)[O-])cc1 [Sulindac] + C[C@]1(O)C[C@@H](c2nc(-c3ccc4ccc(-c5ccccc5)nc4c3)c3c(N)nccn32)C1 [Linsitinib] (partner 1 µM)
Method in brief: as §1

Cell Line	relative viability ([1]; first compound 0.005 µM)	relative viability ([1]; first compound 0.01581 µM)	relative viability ([1]; first compound 0.05 µM)	relative viability ([1]; first compound 0.1581 µM)	relative viability ([1]; first compound 0.5 µM)	relative viability ([2]; first compound 0.005 µM)	relative viability ([2]; first compound 0.01581 µM)	relative viability ([2]; first compound 0.05 µM)	relative viability ([2]; first compound 0.1581 µM)	relative viability ([2]; first compound 0.5 µM)	relative viability (Sulindac + Olaparib; first compound 0.08 µM)	relative viability (Sulindac + Olaparib; first compound 0.253 µM)	relative viability (Sulindac + Olaparib; first compound 0.8 µM)	relative viability (Sulindac + Olaparib; first compound 2.53 µM)	relative viability (Sulindac + Olaparib; first compound 8 µM)	relative viability (Sulindac + Linsitinib; first compound 0.08 µM)	relative viability (Sulindac + Linsitinib; first compound 0.253 µM)	relative viability (Sulindac + Linsitinib; first compound 0.8 µM)	relative viability (Sulindac + Linsitinib; first compound 2.53 µM)	relative viability (Sulindac + Linsitinib; first compound 8 µM)
NCI-H2009	0.197	0.158	0.152	0.153	0.116	0.864	0.276	0.267	0.173	0.141	0.893	0.716	0.679	0.666	0.754	1.22	1.3	1.05	1.13	1.23
NCI-H2347	0.226	0.212	0.19	0.233	0.232	1.03	0.67	0.34	0.364	–	0.546	0.599	0.562	0.574	0.616	1.07	1.09	0.982	1.06	1.16
NCI-H1437	0.391	0.208	0.285	0.173	0.134	0.918	0.663	0.487	0.413	0.242	0.748	0.679	0.503	0.638	0.665	1.33	1.14	0.628	1.09	1.26
SK-MES-1	0.21	0.22	0.154	0.126	0.106	0.849	0.534	0.246	0.18	0.177	0.733	0.825	0.56	0.712	0.772	1.11	1.22	0.809	1.08	1.18
NCI-H3122	0.861	–	0.756	0.232	0.0614	1.07	0.302	0.758	0.209	0.217	0.739	0.648	0.579	0.655	0.604	1.07	1.01	0.928	1.07	1.07
NCI-H2085	0.244	0.257	0.271	0.235	0.242	0.609	0.53	0.495	0.343	0.28	0.742	0.79	0.711	0.792	0.837	0.894	0.856	0.876	0.848	0.912
PC-3 [JPC-3]	–	0.424	0.375	0.235	0.204	1.05	–	0.638	0.508	0.39	1.36	1.09	0.941	1.13	1.25	0.932	0.95	0.951	0.905	0.984
NCI-H838	0.267	0.203	0.225	0.177	0.178	0.274	0.208	0.19	0.246	0.114	0.941	0.798	0.65	0.809	0.914	1.19	1.06	0.848	1.01	1.2
NCI-H1755	0.229	0.206	0.149	–	0.169	0.591	0.418	0.183	0.16	0.14	0.888	0.952	0.829	0.85	0.991	1.16	1.07	0.906	1	1.05
NCI-H650	0.284	0.264	0.271	0.229	0.223	0.517	0.318	0.306	0.288	0.178	0.442	0.431	0.341	0.425	0.472	0.973	0.87	0.62	0.817	1.23
NCI-H1944	0.212	0.271	0.203	0.172	0.134	0.953	–	0.483	0.384	0.341	0.433	0.404	0.302	0.438	0.42	1.19	1.14	1	1.24	1.34
LK-2	0.551	–	0.271	0.139	0.121	1.24	1.18	0.451	0.191	0.0868	0.766	0.998	0.514	0.592	0.808	0.464	0.376	0.532	0.417	0.577
HCC-15	0.494	–	0.229	0.11	0.0769	0.887	–	0.64	0.453	0.262	0.747	0.763	0.68	0.702	0.765	0.966	0.868	0.739	0.913	0.921
PC-14	0.0423	0.0358	0.0229	0.0364	0.0239	0.693	0.452	0.172	0.0738	0.0496	0.271	0.321	0.272	0.209	0.272	1.01	1.02	0.708	1.02	1.07
HOP-62	0.343	0.164	0.109	0.124	0.0982	1.25	0.816	0.115	0.0862	0.138	0.3	0.677	0.351	0.266	0.545	0.858	0.937	1.14	1.03	1.16
NCI-H322M	0.365	0.401	0.324	0.277	0.273	0.74	0.723	0.725	0.446	0.328	0.674	0.772	0.742	0.837	0.87	1.01	1.01	0.747	0.951	1.05

Cell Line	relative viability ([1]; first compound 0.005 µM)	relative viability ([1]; first compound 0.01581 µM)	relative viability ([1]; first compound 0.05 µM)	relative viability ([1]; first compound 0.1581 µM)	relative viability ([1]; first compound 0.5 µM)	relative viability ([2]; first compound 0.005 µM)	relative viability ([2]; first compound 0.01581 µM)	relative viability ([2]; first compound 0.05 µM)	relative viability ([2]; first compound 0.1581 µM)	relative viability ([2]; first compound 0.5 µM)	relative viability (Sulindac + Olaparib; first compound 0.08 µM)	relative viability (Sulindac + Olaparib; first compound 0.253 µM)	relative viability (Sulindac + Olaparib; first compound 0.8 µM)	relative viability (Sulindac + Olaparib; first compound 2.53 µM)	relative viability (Sulindac + Olaparib; first compound 8 µM)	relative viability (Sulindac + Linsitinib; first compound 0.08 µM)	relative viability (Sulindac + Linsitinib; first compound 0.253 µM)	relative viability (Sulindac + Linsitinib; first compound 0.8 µM)	relative viability (Sulindac + Linsitinib; first compound 2.53 µM)	relative viability (Sulindac + Linsitinib; first compound 8 µM)
NCI-H1395	0.377	0.306	0.383	0.299	0.247	1.05	0.474	0.366	0.498	0.271	0.43	0.424	0.467	0.45	0.483	1.09	1.07	0.993	0.948	1.18
NCI-H661	0.67	0.349	0.381	0.347	0.123	0.651	0.313	0.303	0.283	0.251	0.971	0.789	0.59	0.742	0.836	0.585	0.564	0.501	0.637	0.711
NCI-H727	0.47	0.579	0.363	0.235	0.184	0.27	0.291	0.212	0.234	0.148	0.588	0.519	0.648	0.769	0.707	0.29	0.224	0.27	0.243	0.34
NCI-H1734	0.309	–	0.136	0.1	0.116	0.635	0.344	0.239	0.202	0.149	0.634	0.67	0.609	0.649	0.674	0.987	0.932	0.575	0.903	1.13
EKVX	0.666	0.282	0.201	0.202	0.161	0.729	0.409	0.177	0.214	0.122	0.736	0.929	0.718	0.803	0.93	0.872	1	0.721	0.92	1.04
NCI-H596	0.7	0.467	0.276	0.226	0.183	0.59	0.325	0.284	0.174	0.165	0.567	0.697	–	0.716	0.639	0.943	0.985	0.857	1.12	1.27
LCLC-97TM1	0.611	0.254	0.286	0.378	0.293	0.205	0.18	0.166	0.185	0.179	0.481	0.531	0.473	0.308	0.606	0.187	0.167	0.157	–	0.209
COR-L23	0.309	0.186	0.17	0.112	0.0512	0.204	0.226	0.143	0.0629	0.0497	0.348	0.449	0.291	0.323	0.376	1.18	0.925	–	0.906	0.999
NCI-H1355	0.516	0.166	0.202	0.164	0.152	0.718	0.422	0.21	0.215	0.203	0.704	0.691	0.679	0.66	0.759	0.873	0.949	0.777	0.785	0.883
EPLC-272H	0.179	0.0602	0.0709	0.0723	0.103	0.977	0.122	0.459	0.156	0.188	0.828	0.852	0.72	0.639	0.727	1.04	–	0.751	1.17	1.15
NCI-H1651	0.335	0.211	0.239	0.107	0.0833	0.778	0.564	0.385	0.223	0.109	0.17	0.189	0.162	0.177	0.169	1.1	1.01	0.777	0.955	1.27
SW 1573	0.129	0.116	0.0863	0.0538	0.0496	0.45	0.299	0.144	0.14	0.148	0.52	0.523	0.528	0.478	0.551	0.834	0.788	0.804	0.95	0.722
NCI-H460	0.575	0.27	0.375	0.0523	0.009	0.367	0.198	0.024	0.0141	0.0076	0.579	0.417	0.432	0.342	0.635	1.13	0.79	–	0.988	1.15
SK-LU-1	0.183	–	–	0.102	0.1	0.264	0.188	0.18	0.158	0.122	0.498	0.525	0.446	0.407	0.536	1.13	1.27	1.19	1	1.5
LOU-NH91	0.36	0.285	0.299	0.286	0.203	0.718	0.575	0.457	0.304	0.305	0.955	0.961	0.84	0.893	1.01	0.877	0.916	0.858	0.933	1.09
RERF-LC-KJ	0.416	0.364	0.223	0.192	0.201	0.916	0.637	0.392	0.282	0.21	0.949	1.01	0.971	0.861	1.07	0.922	0.948	0.738	0.895	0.895
